Measurements from patent publication US20100254940A1, “Compositions and Methods for Regulating an Immune Response in a Subject” (INNATE PHARMA, S.A., priority 2002, published 2010).

Experiments:
Vγ9/Vδ2 T cells = conditions: reported; cited from earlier work
γδ T cell [1] = test: γδ T cell amplification from human PBMCs, counting γδ T cell using flow cytometry (given as in vivo EC50); type: cell-based; conditions: for EC50: γδ T cell amplification from human PBMCs, flow cytometry count
Method: The biological activity of γδ T cell amplification from human PBMCs was assessed by counting γδ T cell using flow cytometry.
In vitro proliferation assays and in vitro TNFα release assay are performed essentially as described in Example 3.

γδ T cells [2] = test: In vivo γδ T cell amplification after successive i.v. HDMAPP/IL2 injections in cynomolgus monkeys; set-up: species or system cynomolgus monkeys (M. fascicularis); conditions: day 5
Method: Eight purpose bred healthy male cynomolgus monkeys (M. fascicularis). At the beginning of the study, body weights ranged from 3.5 to 4 kg and ages from 37 to 41 months.
Animals were anaesthetised with intra-muscular injection of 6 mg/kg Zoletil™ 100 (Tiletamine-Zolazepam, Virbac, Carros, France) before any perfusion.
HDMAPP was administered i.v. to male cynomolgus monkeys by 30-minute perfusions in a total volume of 50 ml with Ringer Lactate as vehicle. […]
The animals were co-treated subcutaneously with 0.6M IU IL2 in sterile water per day for 5 days.
Blood was drawn pre-dose and at day 4, 5, 7, 11 and 14 after HDMAPP perfusion for flow cytometry analysis of blood cellular populations of interest.
Peripheral γδ lymphocytes were analysed by flow cytometry on total monkey blood, after triple staining with anti-Vgamma9FITC, anti-CD3PE and anti-CD69PC5 antibodies (Vgamma9-FITC: 7B6 clone, produced, purified and FITC-coupled at Innate Pharma; CD3-PE: SP34 clone, BD Biosciences Pharmingen, Le Pont de Claix, France; CD69PC5: FN50 clone, Immunotech-Beckman-Coulter, Marseilles, France).
Briefly, 50 μl monkey blood was incubated 15 min at RT with 10 μl anti-gamma9-FITC, 5 μl anti-CD3-PE and 5 μl anti-CD69PC5 antibodies. Antibodies were washed with 3 ml 1×PBS, centrifuged for 4 min at 1300 rpm at RT and supernatant was discarded. Red cells were lysed with the OptiLyse C reagent (Immunotech-Beckman-Coulter, Marseilles, France) according to the manufacturer's instructions. At the final step, stained white blood cells were recovered by centrifugation and resuspended in 300 μl 1×PBS+0.2% PFA. Immediately before analysis, 50 μl calibrated Flow Count™ Fluorospheres (Immunotech-Beckman-Coulter, Marseilles, France) were added to the cells for absolute number counting of the populations of interest.

γδ T cell [3] = test: In vitro TNFα release assay, γδ T cell amplification from human PBMCs (in the presence of rhIL2); type: cell-based
Method: The in vitro biological activity of γδ T cell amplification from human PBMCs (in the presence of rhIL2) was assessed using a TNFα release assay.
Cytokine secretion and cytolytic activity can be assessed using any appropriate in vitro assay, or those provided in the examples herein. For example, cytokine secretion can be determined according to the methods described in Espinosa et al. (J. Biol. Chem., 2001, Vol. 276, Issue 21, 18337-18344), describing measurement of TNF-α release in a bioassay using TNF-α-sensitive cells. Briefly, 10^4 γδT cells/well were incubated with stimulus plus 25 units of IL2/well in 100 μl of culture medium during 24 h at 37° C. Then, 50 μl of supernatant were added to 50 μl of WEHI cells plated at 3×10^4 cells/well in culture medium plus actinomycin D (2 μg/ml) and LiCl (40 mM) and incubated for 20 h at 37° C. Viability of the TNF-α-sensitive cells and measured with a 3-(4,5-dimethylthiazol-2-yl)-2,5-diphenyltetrazolium bromide assay. 50 μl of 3-(4,5-dimethylthiazol-2-yl)-2,5-diphenyltetrazolium bromide (Sigma; 2.5 mg/ml in phosphate-buffered saline) per well were added, and after 4 h of incubation at 37° C., 50 μl of solubilization buffer (20% SDS, 66% dimethyl formamide, pH 4.7) were added, and absorbance (570 nm) was measured. Levels of TNF-α release were then calculated from a standard curve obtained using purified human rTNF-α (PeproTech, Inc., Rocky Hill, N.J.). Interferon-γ released by activated T cells was measured by a sandwich enzyme-linked immunosorbent assay. 5×10^4 γδT cells/well were incubated with stimulus plus 25 units of IL2/well in 100 μl of culture medium during 24 h at 37° C. Then, 50 μl of supernatant were harvested for enzyme-linked immunosorbent assay using mouse monoclonal antibodies (BIOSOURCE, Camarillo, Calif.). […]
BrHPP and HDMAPP bioactivity were compared using in vitro and in vivo assays. The in vitro biological activity of γδ T cell amplification from human PBMCs (in the presence of rhIL2) was assessed using a TNFα release assay.

γδ T cells [4] = conditions: Wilhelm et al., 2003; cited from earlier work

| EC50 (γδ T cell [3]; T-cell, TNFα release assay, human PBMCs, rhIL2) [nM] | SMILES | EC50 (Vγ9/Vδ2 T cells) [nM] | difference in potency (γδ T cell [1]; HDMAPP vs BrHPP) [log] | EC50 (γδ T cell [1]) [nM] | γδ cells among CD3+ (γδ T cells [2]; first of 4 successive injections, 5 weeks apart, 2.6 mg/kg) | γδ cells among CD3+ (γδ T cells [2]; fourth of 4 successive injections) [%] | γδ cells among CD3+ (γδ T cells [2]; second of 4 successive injections) [%] | γδ cells among CD3+ (γδ T cells [2]; third of 4 successive injections) | difference in potency (γδ T cell [3]; HDMAPP vs BrHPP, in vitro EC50) [fold] | increase in γδ T cell count (γδ T cells [4]) [fold] |
| --- | --- | --- | --- | --- | --- | --- | --- | --- | --- | --- |
| ~0.6 | C/C(=C\COP(=O)(O)OP(=O)(O)O)CO [HDMAPP, (E)-4-hydroxy-3-methyl-2-butenyl pyrophosphate] | ~0.1 | ~2 | ~0.005 | approx. 60% | ~40 | ~55 | approx. 60% | ~50 |  |
|  | O=P(O)(O)C(O)(Cn1ccnc1)P(=O)(O)O [Zoledronate®, reference compound] |  |  | ~1000 |  |  |  |  |  |  |
|  | NCCC(O)(P(=O)(O)O)P(=O)(O)O [pamidronate] |  |  |  |  |  |  |  |  | ≤ 2 |
